Measurements as given in patent US7829567B2, “Imino-indeno[1,2-c] quinoline derivatives, their preparation processes, and pharmaceutical compositions comprising the same” (Kaohsiung Medical University, priority 2007, dated 2010).
Where a name gives a salt, the structure may show the parent alone. Read-outs that look alike come from different tables or passages of the source.

Tests used:
[1] = system: human cervical epithelioid carcinoma (HeLa); test: In vitro anticancer assay (MTT), HeLa; assay type: cell-based; conditions: HeLa cells, 48 hrs, mean ± spread, read-out: Anti-proliferative evaluation IC50, HeLa
How it was run: (§1)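 MTT viability assay read at 570 nm, with formazan dissolved in DMSO. Growth was expressed as percent of control, (Abtreated/Abcontrol)×100, using mean absorbance (n=3).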

[2] = system: oral squamous cell carcinoma (SAS); test: In vitro anticancer assay (MTT), SAS; assay type: cell-based; conditions: SAS cells, 48 hrs, mean ± spread, read-out: Anti-proliferative evaluation IC50, SAS
How it was run: as §1

[3] = system: hepatocellular carcinoma (SKHep1); test: In vitro anticancer assay (MTT), SKHep1; assay type: cell-based; conditions: 48 hrs, mean ± spread, read-out: Anti-proliferative evaluation IC50, SKHep1
How it was run: as §1

[4] = system: human stomach adenocarcinoma (AGS); test: In vitro anticancer assay (MTT), AGS; assay type: cell-based; conditions: AGS cells, 48 hrs, mean ± spread, read-out: Anti-proliferative evaluation IC50, AGS
How it was run: as §1

[5] = system: human renal clear cell carcinoma; test: In vitro anticancer assay (MTT), RCC 768-O; assay type: cell-based; conditions: RCC 768-O cells, 48 hrs, mean ± spread, read-out: Anti-proliferative evaluation IC50, RCC 768-O
How it was run: as §1

[6] = system: esophageal carcinoma (CE81T); test: In vitro anticancer assay (MTT), CE81T; assay type: cell-based; conditions: CE81T cells, 48 hrs, mean ± spread, read-out: Anti-proliferative evaluation IC50, CE81T
How it was run: as §1

cancer cells = test: In vitro anticancer assay, summary over the six cancer cells; assay type: cell-based; conditions: summary of Table 2
Experimental: Six cancer cells, i.e., cells of human cervical epithelioid carcinoma (HeLa), hepatocellular carcinoma (SKHep1), oral squamous cell carcinoma (SAS), human stomach adenocarcinoma (AGS), human renal clear cell carcinoma (RCC 768-O) and esophageal carcinoma (CE81T), were treated with the selected compounds as indicated for 48 hrs in a medium containing 10% FBS (3-[4,5-Dimethylthiazol-2-yl]-2,5-diphenyltetrazolium bromide (MTT, 2 mg/mL, […]) was added to the cultures and incubated during the final 1.5 hrs. The resultant tetrazolium salt was then dissolved by the addition of dimethyl sulfoxide. Color was measured spectrophotometrically in a microtiter plate reader at 570 nm and used as a relative measure of viable cell number. The number of viable cells after treatment was compared to solvent and untreated control cells and used to determine the percent of control growth as (Abtreated/Abcontrol)×100, where Ab represents the mean absorbance (n=3). The concentration that killed 50% of cells (IC50) was determined from the linear portion of the curve by calculating the concentration of agent that reduced absorbance in treated cells, as compared to control cells, by 50% (S. D. Heo et al. (1990), Cancer Res., 50:3681-3690). (+)-camptothecin (CPT) and doxorubicin hydrochloride (Dox) were used for comparison with the compounds according to this invention.

[7] = Homo sapiens, SK-HEP1, SKHep1 cells

| IC50 ([1]; Homo sapiens) [µM] | IC50 [2] [µM] | IC50 [3, 7] [µM] | IC50 ([4]; Homo sapiens) [µM] | IC50 ([5]; Homo sapiens) [µM] | IC50 [6] [µM] | melting point [°C] | IC50 [1] [µM] | IC50 ([3]; SKHep1 cells) [µM] | IC50 [4] [µM] | IC50 [5] [µM] | SMILES | anticancer activity (in words) (cancer cells) |
| --- | --- | --- | --- | --- | --- | --- | --- | --- | --- | --- | --- | --- |
| 15.2 ± 1.5 | > 30 | 25.3 ± 15.5 | 10.1 ± 1.2 | 12.5 ± 1 | > 30 | 150 to 151 |  |  |  |  | COc1ccc2c(c1)C(=O)c1c-2c(N2CCNCC2)nc2ccccc12 [Compound 5x, 9-Methoxy-6-(piperazin-1-yl)-11H-indeno[1,2-c]quinolin-11-one] |  |
|  |  |  |  |  |  | 162 to 163 |  |  |  |  | COc1ccc2c(c1)C(=O)c1c-2c(N2CCN(C(=O)CCCl)CC2)nc2ccccc12 [Compound 5hh, 6-[4-(3-Chloropropanoyl)piperazin-1-yl]-9-methoxy-11H-indeno[1,2-c]quinolin-11-one] |  |
|  |  |  |  |  |  | 195 to 196 |  |  |  |  | COc1ccc2c(c1)C(=O)c1c-2cnc2ccccc12 [Compound 5d, 9-Methoxy-11H-indeno[1,2-c]quinolin-11-one] |  |
| 7.2 ± 0.9 | 6.5 ± 0.9 | 7.4 ± 2.1 | 5.9 ± 1.4 | 9.1 ± 1.5 | 6.8 ± 1.2 | 251 to 252 |  |  |  |  | COc1ccc2c(c1)C(=O)c1c-2c(Nc2ccc(C(C)=O)cc2)nc2ccccc12 [Compound 5s, 6-(4-Acetylphenylamino)-9-methoxy-11H-indeno[1,2-c]quinolin-11-one] |  |
|  |  |  |  |  |  | 270 to 271 |  |  |  |  | COc1ccc2c(c1)C(=NO)c1c-2cnc2ccccc12 [Compound 6a, 9-Methoxy-11H-indeno[1,2-c]quinolin-11-one oxime] |  |
|  |  |  |  |  |  | 149 to 150 |  |  |  |  | CON=C1c2ccccc2-c2c(N3CCNCC3)nc3ccccc3c21 (as salt: salt) [Compound 6j, 6-(Piperazin-1-yl)-11H-indeno[1,2-c]quinolin-11-one O-methyl oxime] |  |
| 2.4 ± 1.2 | 6.6 ± 0.9 | 3.8 ± 1.8 | 7.9 ± 1.5 | 7.1 ± 0.6 | 4.1 ± 3.3 | 148 to 149 |  |  |  |  | CN(C)CCNc1nc2ccccc2c2c1-c1ccccc1C2=O [Compound 5a, 6-(2-(Dimethylamino)ethylamino)-11H-indeno[1,2-c]quinolin-11-one] |  |
|  |  |  |  |  |  | 316 to 317 |  |  |  |  | COc1ccc2c(c1)C(=O)c1c-2c(O)nc2ccccc12 [Compound 5e, 6-Hydroxy-9-methoxy-11H-indeno[1,2-c]quinolin-11-one] |  |
|  | 13.5 ± 2.2 |  |  |  | 9.4 ± 0.6 |  | 5.4 ± 1.3 | 8.6 ± 0.7 | 2.8 ± 1.3 | 5.9 ± 0.9 | COc1ccc2c(c1)C(=O)c1c-2c(N2CCN(C(=O)CCNCCCN(C)C)CC2)nc2ccccc12 [Compound 5ccc] |  |
|  | > 30 |  |  |  | > 30 |  | 10.8 ± 3 | 13.1 ± 2.7 | 5.6 ± 2.2 | 10 ± 2.1 | COc1ccc2c(c1)C(=O)c1c-2c(N2CCN(C(=O)CNCCCN(C)C)CC2)nc2ccccc12 [Compound 5pp] |  |
|  | > 30 |  |  |  | > 30 |  | > 30 | 11.5 ± 5.6 | 13.4 ± 1.3 | > 30 | COc1ccc2c(c1)C(=O)c1c-2c(N2CCN(C(=O)CCNCCN3CCNCC3)CC2)nc2ccccc12 [Compound 5iii] |  |
|  | 5.1 ± 0.8 |  |  |  | 4.9 ± 1.5 |  | 0.4 ± 0.1 | 0.7 ± 0.3 | 4.1 ± 1.2 | 1.7 ± 0.5 | COc1cccc2c1C(=O)c1c-2c(N2CCNCC2)nc2ccccc12 [Compound 5bb] | broad and potent anticancer activity |
| 7 ± 1.2 | 11.7 ± 1.6 | 6.6 ± 3.2 | 7.4 ± 2.1 | 7.1 ± 0.6 | 8.3 ± 0.3 |  |  |  |  |  | COc1cc2c(cc1OC)-c1c(N3CCNCC3)nc3ccccc3c1C2=O [Compound 5dd, 8,9-Dimethoxy-6-(piperazin-1-yl)-11H-indeno[1,2-c]quinolin-11-one] |  |
|  | 7.9 ± 0.3 |  |  |  | 3.4 ± 0.3 |  | 4.9 ± 0.6 | 5.9 ± 1.1 | 7.6 ± 3.4 | 7 ± 0.7 | CON=C1c2cc(F)ccc2-c2c(N3CCNCC3)nc3ccccc3c21 [Compound 6l] |  |

| SMILES | IC50 ([1]; Homo sapiens) [µM] | IC50 [2] [µM] | IC50 [3, 7] [µM] | IC50 ([4]; Homo sapiens) [µM] | IC50 ([5]; Homo sapiens) [µM] | IC50 [6] [µM] | melting point [°C] | IC50 [1] [µM] | IC50 ([3]; SKHep1 cells) [µM] | IC50 [4] [µM] | IC50 [5] [µM] | anticancer activity (in words) (cancer cells) |
| --- | --- | --- | --- | --- | --- | --- | --- | --- | --- | --- | --- | --- |
| COc1ccc2c(c1)C(=NOCc1ccccc1)c1c-2c(N2CCNCC2)nc2ccccc12 [Compound 6x] |  | 7.6 ± 0.6 |  |  |  | 3.4 ± 2.3 |  | 6.1 ± 0.3 | 4.2 ± 1.8 | 6.1 ± 1.4 | 7 ± 0.4 |  |
